Assay results reported in patent US12031986B2, “Polypeptide for targeting recognition of immune cells and application thereof” (KEYANGLE LIFE TECHNOLOGY CO., LTD., priority 2019, dated 2024).
“Also recorded” adds a separate entry of the source. No end group written: not given here.

Tests used:
[1] = tested on: mouse peritoneal macrophages; assay: In vivo fluorescent labeling of macrophages in a mouse abdominal cavity; conditions: probe injected into abdominal cavity, cells extracted after 4 hours, fluorescence microscope
Protocol: Dilute 300 μL of 50 μM AK9 fluorescent probe solution with serum-free DMEM incomplete medium to obtain 1 mL of solution, then inject into the abdominal cavities of 5-8 week old Kunming mice. After 4 hours, inject 5 mL of 1×PBS, and massage. After 10 minutes, sacrifice the mice by cervical vertebra dislocation. Cut the abdominal cavity skin of the mice, pierce the abdominal wall muscle by syringe, and extract the fluid in the abdominal cavity of the mice. Centrifuge the extracted peritoneal fluid at 1000 rpm for 5 min, wash twice with 1×PBS. Double-stain an appropriate number of cells with Alexa Fluor 488 anti-mouse F4/80 antibody (Biolegend). Add the stained cells to a 96-well plate and stain with a nuclear dye Nucblue (Invitrogen). Observe under EVOS FL Auto fluorescence microscope (Life Technologies, 20×, light source 50%, exposure 200 ms, gain 10) after the suspended cells were settled down at the bottom of the plate.
Table 1 lists probes, which contain the polypeptide fragments from the C-terminal fragments of Triokinases/FMN cyclases of different species and were prepared by a similar process as described in Examples 1 and 2, and in vivo imaging results of mouse peritoneal macrophages using these probes.

[2] = tested on: mouse macrophage cell line RAW264.7; assay: In vitro fluorescence labeled staining of a mouse macrophage cell line; assay type: cell-based; conditions: 10 μM, incubated 1 h
Protocol: Culture the mouse macrophage cell line RAW264.7 in a 96-well plate, wash the wells once with 1×PBS buffer or a serum-free DMEM incomplete medium, remove the washing liquid, add EK24 solution of 10 μM which had been diluted with 100 μL of serum-free DMEM incomplete medium, and incubate in a cell culture incubator for 1 h. After that, wash the wells twice with 1× PBS buffer or the serum-free DMEM incomplete medium. Then, add DMEM complete medium containing 10% FBS and 1% streptomycin-penicillin, and double-stain the cells using nuclear dye Nucblue and observe under EVOS® FL Auto fluorescence microscope (Life Technologies, light source 10%, exposure 200 ms, gain 5).

[3] = tested on: cultured macrophages isolated from mouse peritoneal cavity; assay: In vitro fluorescent labeling of cultured macrophages isolated from mouse peritoneal cavity; assay type: cell-based; conditions: 10 μM EK24 premixed with F4/80 antibody, 1 h at 37 °C
Protocol: Inject 5 mL of serum-free DMEM incomplete medium into the abdominal cavity of 5 to 8 weeks old mice, massage the abdominal cavity gently for 10 min, and sacrifice the mice by cervical vertebra dislocation. Extract the fluid from the abdominal cavity gently with a syringe, inject into a 5 mL centrifuge tube and centrifuge at 1000 rpm for 5 min, remove the supernatant, and resuspend the collected ex-vivo cells in DMEM/F12 medium containing 10% FBS, then add into a 96-well plate for culture. Generally, if cells are taken intraperitoneally for in vitro culture, macrophages would tend to adhere to the bottom of the well, and other cells would be washed off. The cells were cultured for more than 2 days until the cells attached to the bottom firmly. At this time, the cells remaining in the wells were basically macrophages. Select two wells, one as a control and the other as an experimental well. The cells of the control were nuclear stained with Nucblue. The experimental well was added with a premix of AlexaFluor®488 anti-mouse F4/80 antibody (Biolegend) and EK24 fluorescent probe, and then incubated for 1 h at 37° ° C. The premix contained 10 μM of EK24 solution and 2 μL of Alexa Fluor®488 anti-mouse F4/80 antibody diluted with 100 μL of serum-free DMEM incomplete medium. […] The cells were observed under a fluorescence microscope (20× objective lens, light source 10%, exposure 200 ms, gain 5).

[4] = tested on: primary macrophages from rat peritoneal cavity; assay: In vitro fluorescent labeling of primary macrophages from rat peritoneal cavity; assay type: cell-based; conditions: SD rats, cells cultured more than 2 days
Protocol: With the same process as in Example 9, extract cells from the abdominal cavity of 5 to 8 weeks old SD rats using 20 mL serum-free DMEM incomplete medium and culture the cells in a 96-well plate. After culturing for more than 2 days until the cells attached to the bottom firmly, a well was selected and added with EK24 fluorescent probe for incubation. Then the cells were observed under a fluorescence microscope (20×, light source 10%, exposure 200 ms, gain 5).

[5] = tested on: monocyte precursors from New Zealand White Rabbit bone marrow mesenchyme; assay: In vitro fluorescent labeling of primary monocyte precursors of New Zealand White Rabbit; assay type: cell-based; conditions: cultured
From the text: With a similar process to Example 11, bone marrow monocyte precursors of New Zealand White Rabbit were taken and cultured, then labeled by using EK24 fluorescent probe and Nucblue. Then the cells were observed under a fluorescence microscope (20×, light source 10%, exposure 200 ms, gain 5).

[6] = tested on: cultured peritoneal macrophages and other cells released from enzyme-digested mesenterium; assay: Selective labeling of cultured peritoneal macrophages among other cells released from enzyme-digested mesenterium; assay type: cell-based, mouse; conditions: peritoneal cells and mesenteries trypsin-digested, cultured 3 days
Protocol: Take 5 to 8-week-old Kunming mice, inject intraperitoneally with 5 mL of serum-free DMEM incomplete medium. After 1 hour, sacrifice the mice by cervical vertebra dislocation. Make an incision on the skin of abdominal cavity, pierce the abdominal wall muscle using the syringe, and extract the fluid in the abdominal cavity of the mice. Wash twice with 1×PBS, collect peritoneal cells by centrifugation. Also take the mesenteries of the Kunming mice and purge twice with 1×PBS in centrifuge tubes. Incubate the obtained peritoneal cells and mesenteries in 0.25% trypsin solution and digest for 30 minutes. Enrich the cells by centrifugation, and then culture for 3 days in a 96-well plate using F12/DMEM culture solution containing 10% FBS and 1% streptomycin-penicillin. Referring to Example 5, label with the EK24 fluorescent probe and Nucblue. Then the cells were observed under a fluorescence microscope (20×, light source 10%, exposure 200 ms, gain 5).

[7] = tested on: macrophages on mouse abdominal wall; assay: In vivo fluorescent labeling of macrophages on mouse abdominal wall; conditions: injected with FITC anti-mouse CD68 antibody; abdominal wall muscle removed
Protocol: Referring to Example 3, using the same drug injection process, inject EK24, and FITC anti-mouse CD68 antibody (Biolegend) which was diluted with PBS from 2 μL to 500 μL. Remove mouse abdominal wall muscle for Nucblue double-staining and then observing under a fluorescence microscope (20×, light source 50%, exposure 200 ms, gain 5).

[8] = tested on: mouse alveolar macrophages; assay: In vivo fluorescent labeling of mouse pulmonary macrophages after spraying through the trachea; conditions: sprayed into the lungs through the trachea; whole lungs observed
From the text: In yet another aspect of the present disclosure, it provides a method for convenient, oral and non-invasive in situ imaging or targeted drug administration for pulmonary immune cells. After spraying into the trachea of a mouse, the polypeptide or probe of the present disclosure can be diffused along the trachea in the living body, automatically target and aggregate in alveolar macrophages, and thus allow real-time and in situ imaging or targeted drug delivery to pulmonary and alveolar macrophages. The imaging may be maintained for more than 24 hours. The experiments of the present disclosure confirm that the probe described above can diffuse to lungs through mouth inhalation, and recognize macrophages therein, which is consistent with CD11c antibody recognizing alveolar macrophages.
Spray 100 μL of 50 μM EK24-drug into the lungs of 4- to 8-week-old mice through the trachea thereof, and after 18 hours, dilute 5 μL of Alexa Fluor®488 anti-mouse CD11c antibody (Biolegend) to 100 μL and then spray into the lung for 1.5 h. Dissect the mice, and take the whole lungs for observing under a fluorescence microscope (20×, light source 50%, exposure 200 ms, gain 5).

For “EQPDPGAVAAAAILRAILEVLQS-Y (EQPDPGAVAAAAILRAILEVLQSY; also: reporter type not given here; listed as Homo sapiens) [EK24, Y = reporter or cysteine/lysine + reporter]”, the “in vivo labeling / recognition of mouse peritoneal macrophages by the fluorescent probe” value [1] was “can effectively recognize macrophages in vivo; also recorded: can be labeled”, the “fluorescent labeling of RAW264.7” value [2] was “can be labeled” and the “co-localization of probe label and F4/80 antibody label” value [3] was “co-localized on the same cells”. For the same substance, the “labeling of in vitro cultured primary macrophages from rat peritoneal cavity” value [4] was “can effectively label”, the “labeling of New Zealand White Rabbit bone marrow monocyte precursors” value [5] was “capable of labeling” and the “staining of macrophages in mixed culture” value [6] was “only stains macrophages”. For the same substance, the “staining of non-macrophages in mixed culture” value [6] was “not stain non-macrophages”, the “labeling of macrophages on mouse abdominal wall” value [7] was “can be labeled” and the “labeling of other cells of mouse abdominal wall” value [7] was “cannot be labeled”. For the same substance, the “recognition of mouse alveolar / pulmonary macrophages” value [8] was “recognize the same cells in mouse alveoli”.
